Values of other authors, collected in US20080166406A1, “Rapidly Disintegrating Dosage Form Comprising Magnesium Carbonate Heavy” (priority 2005, published 2008).

Conditions: water, neutral pH, acidic pH; general statement

In the case of `Cc1cc2c(s1)Nc1ccccc1N=C2N1CCN(C)CC1` [Olanzapine], the Solubility is given as “insoluble in water and neutral pH but more soluble at acidic pH”.
